Measured values: patent US20240207267A1, “(R)-Glutarimide CRBN Ligands and Methods of Use” (BeiGene Switzerland GmbH, priority 2021, published 2024)

Columns and labels:
Type in all cases: cell-based
BTK (TMD-8 cells) [1] = target: T1, BTK (TMD-8 cells) (Homo sapiens (Human), UniProt Q06187); assay: BTK degradation HTRF assay in TMD-8 cells (Test Example 1); conditions: Table 3; for DC50: 6 h treatment, BTK degradation; for Dmax: TMD8, 6 h treatment, maximum percentage of BTK degradation
Description: 1c). […] TMD-8 cells are treated with compounds diluted in 0.2% DMSO, dilution is done according to the following protocol: (1) make 500× stock solution in DMSO from 1 mM by 6-fold dilution, total 8 doses were included; (2) make 2× solution in cell culture medium by transferring 0.5 μl 500× stock solution into 125 μl medium; (3) 15 μl of 2× solution is added to cells and incubate for 6 h.
(§1) After 6 h treatment, add 10 μl 4xlysis buffer to each well; seal the plate and incubate 30 min at room temperature on a plate shaker; Once the cells are lysed, 16 μL of cell lysate are transferred to a PE 384-well HTRF detection plate; 4 μL of pre-mixed HTRF antibodies are added to each well; Cover the plate with a plate sealer, spin 1000 rpm for 1 min, Incubate overnight at room temperature; Read on BMG PheraStar with HTRF protocol (337 nm-665 nm-620 nm).
(§2) The IC50 (DC50) value of a compound can be obtained by fitting the following equation
(§3) Y=Bottom+(TOP−Bottom)/(1+((IC50/X)^hillslope))
(§4) Wherein, X and Y are known values, and IC50, Hillslope, Top and Bottom are the parameters obtained by fitting with software. Y is the inhibition percentage (calculated from the equation), X is the concentration of the compound; IC50 is the concentration of the compound when the 50% inhibition is reached. The smaller the IC50 value is, the stronger the inhibitory ability of the compound is. Vice versa, the higher the IC50 value is, the weaker the ability the inhibitory ability of the compound is; Hillslope represents the slope of the fitted curve, generally around 1*; Bottom represents the minimum value of the curve obtained by data fitting, which is generally 0%±20%; Top represents the maximum value of the curve obtained by data fitting, which is generally 100%±20%. The experimental data were fitted by calculating and analyzing with Dotmatics data analysis software.

BTK (TMD-8 cells) [2] = target: T1, BTK (TMD-8 cells); assay: BTK degradation HTRF assay in TMD-8 cells (Test Example 3); conditions: 6 h treatment, Table 5
Description: TMD-8 cells were treated with compounds diluted in 0.2% DMSO, dilution was done according to the following protocol: (1) making 500× stock solution in DMSO from 1 mM by 6-fold dilution, total 8 doses were included; (2) making 2× solution in cell culture medium by transferring 0.5 μl 500× stock solution into […]; (3) adding 15 μl of 2× solution to cells for incubation of 6 h.
After 6 h treatment, 10 μl 4xlysis buffer was added to each well; the plate was sealed and incubated for 30 min at room temperature on a plate shaker; Once the cells was lysed, 16 μL of cell lysate were transferred to a PE 384-well HTRF detection plate; 4 μL of pre-mixed HTRF antibodies were added to each well; the plate was covered with a plate sealer, and then spinned at 1000 rpm for 1 min, then incubated overnight at room temperature; the results were read on BMG PheraStar with HTRF protocol (337 nm-665 nm-620 nm).
as §2, §3
as §4, with “wherein,” for “Wherein,”

HEK-293 cells = assay: HEK-293 cytotoxicity detection (CellTiter-Glo); conditions: Homo sapiens, HEK293, 72 h incubation
Description: HEK-293 cells were treated with compounds diluted in 0.2% DMSO, dilution was done according to the following protocol: (1) making 500× stock solution in DMSO from 5 mM by 4-fold dilution, total 8 doses were included; (2) making 2× solution in cell culture medium by transferring 0.5ul 500× stock solution into 125ul medium; (3) adding 50ul of 2× solution to cells for incubation of 72 h.
25 μl of the CellTiter-Glo®Reagent [(Promega) - Cat No. G7572] was added to each well in the 96-well plate. The contents were mixed for 2 minutes on an orbital shaker to induce cell lysis. The plate was then allowed to incubate at room temperature for 10 minutes to stabilize luminescent signal. Luminescence was recorded on BMG PheraStar with luminescence protocol.
The IC50 value of a compound can be obtained by fitting the following equation
as §3, §4

IRAKM (THP-1 cells) = IRAKM (THP-1 cells) (Homo sapiens (Human), UniProt Q9Y616); assay: IRAKM degradation HTRF assay in THP-1 cells; conditions: 6 h treatment
Description: THP-1 cells are treated with compounds diluted in 0.2% DMSO, dilution is done according to the following protocol: (1) make 500× stock solution in DMSO from 5 mM by 5-fold dilution, total 8 doses were included; (2) make 2× solution in cell culture medium by transferring 0.5 μl 500× stock solution into 125 μl medium; (3) 15 μl of 2× solution is added to cells and incubate for 6 h.
as §1, with “1 hour” for “30 min”, “plate(for triple mutant cells, the lysate were diluted by the qual volume 1xlysis buffer before transfer);” for “plate;”
as §2, §3
Wherein, X and Y are known values, and IC50, Hillslope, Top and Bottom are the parameters obtained by fitting with software. Y is the inhibition percentage (calculated from the equation), X is the concentration of the compound; IC50 is the concentration of the compound when the 50% inhibition is reached. […]

T1 sequence (Q06187 whole entry): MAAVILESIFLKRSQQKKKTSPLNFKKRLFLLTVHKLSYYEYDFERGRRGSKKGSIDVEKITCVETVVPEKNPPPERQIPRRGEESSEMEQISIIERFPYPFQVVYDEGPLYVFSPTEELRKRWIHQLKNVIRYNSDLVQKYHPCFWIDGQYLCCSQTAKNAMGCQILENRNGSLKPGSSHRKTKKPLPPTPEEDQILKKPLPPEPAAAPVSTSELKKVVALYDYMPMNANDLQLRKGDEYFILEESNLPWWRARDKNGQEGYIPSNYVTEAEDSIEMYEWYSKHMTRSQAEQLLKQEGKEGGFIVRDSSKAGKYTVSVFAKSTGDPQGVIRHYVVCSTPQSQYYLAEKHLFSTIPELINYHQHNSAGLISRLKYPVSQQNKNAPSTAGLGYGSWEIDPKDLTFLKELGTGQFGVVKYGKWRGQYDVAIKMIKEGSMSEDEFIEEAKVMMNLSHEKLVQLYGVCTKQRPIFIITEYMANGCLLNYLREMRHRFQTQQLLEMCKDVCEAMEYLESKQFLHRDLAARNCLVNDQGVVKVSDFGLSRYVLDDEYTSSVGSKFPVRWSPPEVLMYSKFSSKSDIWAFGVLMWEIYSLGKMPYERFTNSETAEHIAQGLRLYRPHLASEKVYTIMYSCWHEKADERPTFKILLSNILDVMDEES
IRAKM (THP-1 cells), sequence (Q9Y616 whole entry): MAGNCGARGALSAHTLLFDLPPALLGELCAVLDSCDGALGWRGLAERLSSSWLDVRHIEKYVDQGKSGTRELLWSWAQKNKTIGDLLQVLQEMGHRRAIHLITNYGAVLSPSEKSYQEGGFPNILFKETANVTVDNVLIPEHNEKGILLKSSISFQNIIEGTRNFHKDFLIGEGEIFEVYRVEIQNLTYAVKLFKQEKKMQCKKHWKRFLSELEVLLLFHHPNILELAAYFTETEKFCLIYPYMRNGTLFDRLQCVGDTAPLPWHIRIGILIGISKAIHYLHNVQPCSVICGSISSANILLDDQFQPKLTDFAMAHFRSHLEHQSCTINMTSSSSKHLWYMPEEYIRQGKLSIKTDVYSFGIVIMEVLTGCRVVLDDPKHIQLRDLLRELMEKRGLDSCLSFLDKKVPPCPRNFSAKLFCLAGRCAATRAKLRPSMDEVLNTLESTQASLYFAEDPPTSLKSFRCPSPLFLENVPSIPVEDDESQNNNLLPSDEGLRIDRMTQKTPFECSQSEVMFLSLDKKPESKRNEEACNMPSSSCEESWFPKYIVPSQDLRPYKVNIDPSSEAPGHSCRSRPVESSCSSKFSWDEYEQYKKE

| SMILES | DC50 (BTK (TMD-8 cells) [1]) | Dmax (BTK (TMD-8 cells) [1]) | DC50 (BTK (TMD-8 cells) [2]) | DC50 (IRAKM (THP-1 cells)) | IC50 (HEK-293 cells) |
| --- | --- | --- | --- | --- | --- |
| Cc1cc(-c2n[nH]c3ncc(-c4ccc(C5CCN(CCc6ccc(C7CCC(=O)NC7=O)cc6)CC5)cc4)cc23)ccc1CNC(=O)c1nc(C(C)(C)C)no1 (stereo not drawn) [Example 31, 3-(tert-butyl)-N-(4-(5-(4-(1-(4-(2,6-dioxopiperidin-3-yl)phenethyl)piperidin-4-yl)phenyl)-1H-pyrazolo[3,4-b]pyridin-3-yl)-2-methylbenzyl)-1,2,4-oxadiazole-5-carboxamide] | > 2000 nM | 12% |  |  |  |
| Cc1c(C(=O)Nc2cscn2)ccc(-c2nn3c(c2C(N)=O)Nc2ccc(N4CCN(CCc5cc(F)c([C@H]6CCC(=O)NC6=O)c(F)c5)CC4)cc2CC3)c1F [Example B38, (R)-7-(4-(4-(2,6-dioxopiperidin-3-yl)-3,5-difluorophenethyl)piperazin-1-yl)-2-(2-fluoro-3-methyl-4-(thiazol-4-ylcarbamoyl)phenyl)-9,10-dihydro-4H-benzo[d]pyrazolo[1,5-a][1,3]diazepine-3-carboxamide] |  |  | 1.7 nM |  | 26.8 nM |
| Cc1cccc(NC(=O)c2ccc(-c3nn4c(c3C(N)=O)Nc3ccc(N5CCN(CCc6cc(F)c([C@H]7CCC(=O)NC7=O)c(F)c6)CC5)cc3CC4)c(F)c2C)n1 [Example B35, (R)-7-(4-(4-(2,6-dioxopiperidin-3-yl)-3,5-difluorophenethyl)piperazin-1-yl)-2-(2-fluoro-3-methyl-4-((6-methylpyridin-2-yl)carbamoyl)phenyl)-9,10-dihydro-4H-benzo[d]pyrazolo[1,5-a][1,3]diazepine-3-carboxamide] |  |  | 2.32 nM |  | > 10000 nM |
| Cc1c(C(=O)Nc2cn(C)cn2)ccc(-c2nn3c(c2C(N)=O)Nc2ccc(N4CCN(CCc5cc(F)c([C@H]6CCC(=O)NC6=O)c(F)c5)CC4)cc2CC3)c1F [Example B37, (R)-7-(4-(4-(2,6-dioxopiperidin-3-yl)-3,5-difluorophenethyl)piperazin-1-yl)-2-(2-fluoro-3-methyl-4-((1-methyl-1H-imidazol-4-yl)carbamoyl)phenyl)-9,10-dihydro-4H-benzo[d]pyrazolo[1,5-a][1,3]diazepine-3-carboxamide] |  |  | 0.414 nM |  | > 10000 nM |
| Cc1cc(-c2n[nH]c3ncc(-c4ccc(C5CCN(CCc6cc(F)c([C@H]7CCC(=O)NC7=O)c(F)c6)CC5)cc4)cc23)ccc1CNC(=O)c1nc(C(C)(C)C)no1 [Example 32, (R)-3-(tert-butyl)-N-(4-(5-(4-(1-(4-(2,6-dioxopiperidin-3-yl)-3,5-difluorophenethyl)piperidin-4-yl)phenyl)-1H-pyrazolo[3,4-b]pyridin-3-yl)-2-methylbenzyl)-1,2,4-oxadiazole-5-carboxamide] | 5.33 nM | 97.4% |  |  |  |

Further lines, with some results ahead:

| DC50 (BTK (TMD-8 cells) [1]) | Dmax (BTK (TMD-8 cells) [1]) | DC50 (BTK (TMD-8 cells) [2]) | DC50 (IRAKM (THP-1 cells)) | SMILES | IC50 (HEK-293 cells) |
| --- | --- | --- | --- | --- | --- |
|  |  | 242 nM |  | Cc1cc(-c2cc(Nc3cccc(N4CCN(CC5CCN(c6ccc(N7CCC(=O)NC7=O)cc6)CC5)CC4)c3)ncn2)c(F)cc1[C@@H](C)NC(=O)c1nc(C(C)(C)C)no1 [Example C39, (R)-3-(tert-butyl)-N-(1-(4-(6-((3-(4-((1-(4-(2,4-dioxotetrahydropyrimidin-1(21)-yl)phenyl)piperidin-4-yl)methyl)piperazin-1-yl)phenyl)amino)pyrimidin-4-yl)-5-fluoro-2-methylphenyl)ethyl)-1,2,4-oxadiazole-5-carboxamide] | > 10000 nM |
|  |  | 2.73 nM |  | Cc1cc(-c2cc(Nc3ccc(N4CCN(CCc5cc(F)c([C@H]6CCC(=O)NC6=O)c(F)c5)CC4)cn3)ncn2)ccc1[C@@H](C)NC(=O)c1nc(C(C)(C)C)no1 [Example C41, 3-(tert-butyl)-N—((R)-1-(4-(6-((5-(4-(4-((R)-2,6-dioxopiperidin-3-yl)-3,5-difluorophenethyl)piperazin-1-yl)pyridin-2-yl)amino)pyrimidin-4-yl)-2-methylphenyl)ethyl)-1,2,4-oxadiazole-5-carboxamide] | > 10000 nM |
|  |  |  | 2.8 nM | CCc1nc(C(N)=O)c(Nc2ccc(N3CCC(N4CCN(CCc5cc(F)c(C6CCC(=O)NC6=O)c(F)c5)CC4)CC3)c(OC)c2)nc1NC1CCOCC1 (stereo not drawn) [Example D42, 3-((4-(4-(4-(4-(2,6-dioxopiperidin-3-yl)-3,5-difluorophenethyl)piperazin-1-yl)piperidin-1-yl)-3-methoxyphenyl)amino)-6-ethyl-5-((tetrahydro-2H-pyran-4-yl)amino)pyrazine-2-carboxamide] |  |
